Source: the kinase profiling compilation of Christmann-Franck et al. (2016)
“And” between values parts separate entries of the source, which are not always exact repeats. Equal entries are not always repeated.

Each molecule was assayed on RPS6KB1 (human), P23443 [T412E] (assay: radiometric filter-binding kinase assay). Details: compound 100.0 µM; ATP 20 µM.
Chain of RPS6KB1 (human), P23443 [T412E] (P23443 whole entry T412E, looked up): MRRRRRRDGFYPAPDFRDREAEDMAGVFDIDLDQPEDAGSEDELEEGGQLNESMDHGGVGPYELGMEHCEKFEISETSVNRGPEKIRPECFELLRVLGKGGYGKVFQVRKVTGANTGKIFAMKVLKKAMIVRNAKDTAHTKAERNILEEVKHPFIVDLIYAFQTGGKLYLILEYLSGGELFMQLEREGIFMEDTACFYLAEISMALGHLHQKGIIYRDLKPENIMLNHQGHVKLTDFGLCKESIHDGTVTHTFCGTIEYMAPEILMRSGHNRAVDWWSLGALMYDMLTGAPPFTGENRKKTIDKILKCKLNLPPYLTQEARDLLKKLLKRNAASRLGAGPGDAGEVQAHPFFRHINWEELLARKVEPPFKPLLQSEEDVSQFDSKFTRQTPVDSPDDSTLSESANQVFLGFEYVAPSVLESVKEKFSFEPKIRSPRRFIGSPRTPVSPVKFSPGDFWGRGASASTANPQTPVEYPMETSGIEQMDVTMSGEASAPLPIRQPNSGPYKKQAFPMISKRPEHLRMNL

Compound	inhibition [%]
O=c1c(NC(=S)NCc2ccccc2)cnc2[nH]ccn12	9
O=C(Nc1cnc2[nH]cnn2c1=O)c1ccccc1	0
Nc1nc2cnc(-c3ccccc3)cn2n1	9
Nc1cnc2c(-c3c(F)cccc3F)cccn2c1=O	0
Cc1cccc(C)c1-c1cn2nc(N)nc2cn1	8

The molecules below were run on AKT2 (human), P31751 [S474D] (assay: radiometric filter-binding kinase assay). Details: compound 100.0 µM; ATP 50 µM.
Chain of AKT2 (human), P31751 [S474D] (P31751 whole entry S474D, looked up): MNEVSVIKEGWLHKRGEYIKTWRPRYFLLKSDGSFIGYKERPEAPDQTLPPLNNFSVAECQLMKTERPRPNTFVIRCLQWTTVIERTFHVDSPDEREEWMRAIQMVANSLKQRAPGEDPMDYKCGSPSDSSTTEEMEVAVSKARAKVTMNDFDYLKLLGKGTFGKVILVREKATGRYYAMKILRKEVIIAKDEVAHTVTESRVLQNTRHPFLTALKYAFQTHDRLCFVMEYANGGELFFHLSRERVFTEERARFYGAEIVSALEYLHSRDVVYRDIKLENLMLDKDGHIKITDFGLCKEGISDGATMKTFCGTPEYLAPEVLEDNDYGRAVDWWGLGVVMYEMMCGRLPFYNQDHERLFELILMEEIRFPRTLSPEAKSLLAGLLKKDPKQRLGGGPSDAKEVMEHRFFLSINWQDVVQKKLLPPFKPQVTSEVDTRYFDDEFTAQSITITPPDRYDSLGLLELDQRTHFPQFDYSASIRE

Compound	inhibition [%]
O=c1c(NC(=S)NCc2ccccc2)cnc2[nH]ccn12	31
O=C(Nc1cnc2[nH]cnn2c1=O)c1ccccc1	15
Nc1nc2cnc(-c3ccccc3)cn2n1	32
Nc1cnc2c(-c3c(F)cccc3F)cccn2c1=O	68
Cc1cccc(C)c1-c1cn2nc(N)nc2cn1	37

The molecules below were run against DYRK2 (human) (UniProt Q92630) (assay: radiometric filter-binding kinase assay). Details: compound 100.0 µM; ATP 50 µM.
Chain of DYRK2 (human) (Q92630 whole entry, looked up): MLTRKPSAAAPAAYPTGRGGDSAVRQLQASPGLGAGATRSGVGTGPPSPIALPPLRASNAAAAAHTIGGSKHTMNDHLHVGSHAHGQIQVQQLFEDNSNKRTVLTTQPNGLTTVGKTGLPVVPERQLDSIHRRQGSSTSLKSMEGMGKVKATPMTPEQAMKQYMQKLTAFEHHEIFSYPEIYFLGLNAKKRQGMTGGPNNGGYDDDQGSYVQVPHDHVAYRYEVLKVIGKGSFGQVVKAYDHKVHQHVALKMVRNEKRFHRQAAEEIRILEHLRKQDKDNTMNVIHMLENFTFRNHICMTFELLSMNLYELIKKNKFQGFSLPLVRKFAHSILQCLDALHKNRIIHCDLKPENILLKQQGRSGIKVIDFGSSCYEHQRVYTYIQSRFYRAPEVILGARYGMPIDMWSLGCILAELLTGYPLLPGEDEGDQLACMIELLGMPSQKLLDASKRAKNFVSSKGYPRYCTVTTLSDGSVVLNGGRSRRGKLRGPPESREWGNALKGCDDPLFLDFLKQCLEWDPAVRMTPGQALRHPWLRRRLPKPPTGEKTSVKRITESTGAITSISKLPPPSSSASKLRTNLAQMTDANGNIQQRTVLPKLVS

Compound	inhibition [%]
O=c1c(NC(=S)NCc2ccccc2)cnc2[nH]ccn12	13
O=C(Nc1cnc2[nH]cnn2c1=O)c1ccccc1	27
Nc1nc2cnc(-c3ccccc3)cn2n1	63
Nc1cnc2c(-c3c(F)cccc3F)cccn2c1=O	20
Cc1cccc(C)c1-c1cn2nc(N)nc2cn1	21

Each molecule was assayed against PRKACA (human) (UniProt P17612) (assay: radiometric filter-binding kinase assay). Details: compound 100.0 µM; ATP 20 µM.

Compound	inhibition
O=c1c(NC(=S)NCc2ccccc2)cnc2[nH]ccn12	0%
O=C(Nc1cnc2[nH]cnn2c1=O)c1ccccc1	0%
Nc1nc2cnc(-c3ccccc3)cn2n1	9%
Nc1cnc2c(-c3c(F)cccc3F)cccn2c1=O	8% and 12%
Cc1cccc(C)c1-c1cn2nc(N)nc2cn1	0% and 19%

The molecules below were run against EPHA2 (human) (UniProt P29317) (assay: radiometric filter-binding kinase assay). Details: compound 100.0 µM; ATP 50 µM.

Compound	inhibition [%]
O=c1c(NC(=S)NCc2ccccc2)cnc2[nH]ccn12	12
O=C(Nc1cnc2[nH]cnn2c1=O)c1ccccc1	0
Nc1nc2cnc(-c3ccccc3)cn2n1	28
Nc1cnc2c(-c3c(F)cccc3F)cccn2c1=O	33
Cc1cccc(C)c1-c1cn2nc(N)nc2cn1	11

The molecules below were run against ERBB4 (human) (UniProt Q15303) (assay: radiometric filter-binding kinase assay). Details: compound 100.0 µM; ATP 5 µM.

Compound	inhibition [%]
O=c1c(NC(=S)NCc2ccccc2)cnc2[nH]ccn12	34
O=C(Nc1cnc2[nH]cnn2c1=O)c1ccccc1	21
Nc1nc2cnc(-c3ccccc3)cn2n1	83
Nc1cnc2c(-c3c(F)cccc3F)cccn2c1=O	65
Cc1cccc(C)c1-c1cn2nc(N)nc2cn1	28

The molecules below were run against HIPK3 (human) (UniProt Q9H422) (assay: radiometric filter-binding kinase assay). Details: compound 100.0 µM; ATP 20 µM.

Compound	inhibition [%]
O=c1c(NC(=S)NCc2ccccc2)cnc2[nH]ccn12	0
O=C(Nc1cnc2[nH]cnn2c1=O)c1ccccc1	0
Nc1nc2cnc(-c3ccccc3)cn2n1	16
Nc1cnc2c(-c3c(F)cccc3F)cccn2c1=O	23
Cc1cccc(C)c1-c1cn2nc(N)nc2cn1	7

Each molecule was assayed against DAPK1 (human) (UniProt P53355) (assay: radiometric filter-binding kinase assay). Details: compound 100.0 µM; ATP 5 µM.

Compound	inhibition [%]
O=c1c(NC(=S)NCc2ccccc2)cnc2[nH]ccn12	0
O=C(Nc1cnc2[nH]cnn2c1=O)c1ccccc1	0
Nc1nc2cnc(-c3ccccc3)cn2n1	31
Nc1cnc2c(-c3c(F)cccc3F)cccn2c1=O	0
Cc1cccc(C)c1-c1cn2nc(N)nc2cn1	0

Each molecule was assayed against INSR (human) (UniProt P06213) (assay: radiometric filter-binding kinase assay). Details: compound 100.0 µM; ATP 20 µM.
Chain of INSR (human) (P06213 whole entry, looked up): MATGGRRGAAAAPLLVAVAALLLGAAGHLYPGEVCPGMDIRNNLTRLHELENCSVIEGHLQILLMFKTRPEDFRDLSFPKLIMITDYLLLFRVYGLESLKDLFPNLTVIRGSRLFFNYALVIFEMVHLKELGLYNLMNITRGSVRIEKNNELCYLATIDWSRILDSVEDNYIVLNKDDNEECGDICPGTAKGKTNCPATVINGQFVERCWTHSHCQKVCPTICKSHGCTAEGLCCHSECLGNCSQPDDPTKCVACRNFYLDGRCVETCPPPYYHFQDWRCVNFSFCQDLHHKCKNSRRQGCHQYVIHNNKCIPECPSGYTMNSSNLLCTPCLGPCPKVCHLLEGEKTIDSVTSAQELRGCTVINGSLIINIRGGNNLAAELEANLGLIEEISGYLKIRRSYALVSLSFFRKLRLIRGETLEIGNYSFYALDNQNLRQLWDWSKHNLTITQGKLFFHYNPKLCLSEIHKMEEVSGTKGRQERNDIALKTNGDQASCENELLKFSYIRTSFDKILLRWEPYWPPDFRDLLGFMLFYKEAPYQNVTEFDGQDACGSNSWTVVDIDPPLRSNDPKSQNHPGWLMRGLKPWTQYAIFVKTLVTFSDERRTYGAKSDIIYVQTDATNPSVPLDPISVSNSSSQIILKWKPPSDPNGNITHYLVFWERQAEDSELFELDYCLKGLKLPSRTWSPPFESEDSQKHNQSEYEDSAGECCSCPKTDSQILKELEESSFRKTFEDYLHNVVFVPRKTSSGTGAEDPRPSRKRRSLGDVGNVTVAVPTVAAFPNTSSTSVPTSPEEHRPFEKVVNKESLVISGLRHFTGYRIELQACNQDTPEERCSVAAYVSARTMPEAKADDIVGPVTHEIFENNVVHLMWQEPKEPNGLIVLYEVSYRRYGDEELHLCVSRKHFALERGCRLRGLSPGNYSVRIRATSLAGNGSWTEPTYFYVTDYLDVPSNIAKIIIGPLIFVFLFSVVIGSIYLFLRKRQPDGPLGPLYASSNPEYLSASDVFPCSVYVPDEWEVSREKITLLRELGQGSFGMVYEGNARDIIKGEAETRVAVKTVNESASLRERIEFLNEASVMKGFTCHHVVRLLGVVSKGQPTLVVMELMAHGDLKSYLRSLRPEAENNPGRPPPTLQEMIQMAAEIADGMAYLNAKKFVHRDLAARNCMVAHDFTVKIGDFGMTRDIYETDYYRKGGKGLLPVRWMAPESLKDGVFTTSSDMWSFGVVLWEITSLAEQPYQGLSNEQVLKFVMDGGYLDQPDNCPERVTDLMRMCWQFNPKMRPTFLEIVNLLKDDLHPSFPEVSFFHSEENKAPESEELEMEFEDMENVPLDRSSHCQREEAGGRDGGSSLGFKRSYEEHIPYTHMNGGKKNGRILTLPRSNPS

Compound	inhibition [%]
O=c1c(NC(=S)NCc2ccccc2)cnc2[nH]ccn12	0
O=C(Nc1cnc2[nH]cnn2c1=O)c1ccccc1	0
Nc1nc2cnc(-c3ccccc3)cn2n1	97
Nc1cnc2c(-c3c(F)cccc3F)cccn2c1=O	88
Cc1cccc(C)c1-c1cn2nc(N)nc2cn1	24

These molecules were tested against MAPK9 (human) (UniProt P45984) (assay: radiometric filter-binding kinase assay). Details: compound 100.0 µM; ATP 20 µM.

Compound	inhibition [%]
O=c1c(NC(=S)NCc2ccccc2)cnc2[nH]ccn12	7
O=C(Nc1cnc2[nH]cnn2c1=O)c1ccccc1	3
Nc1nc2cnc(-c3ccccc3)cn2n1	26
Nc1cnc2c(-c3c(F)cccc3F)cccn2c1=O	17
Cc1cccc(C)c1-c1cn2nc(N)nc2cn1	0

These molecules were tested on PAK2 (human), Q13177 [T402E] (assay: radiometric filter-binding kinase assay). Details: compound 100.0 µM; ATP 20 µM.

Compound	inhibition [%]
O=c1c(NC(=S)NCc2ccccc2)cnc2[nH]ccn12	5
O=C(Nc1cnc2[nH]cnn2c1=O)c1ccccc1	0
Nc1nc2cnc(-c3ccccc3)cn2n1	31
Nc1cnc2c(-c3c(F)cccc3F)cccn2c1=O	41
Cc1cccc(C)c1-c1cn2nc(N)nc2cn1	56

These molecules were tested against EPHA4 (human) (UniProt P54764) (assay: radiometric filter-binding kinase assay). Details: compound 100.0 µM; ATP 50 µM.

Compound	inhibition [%]
O=c1c(NC(=S)NCc2ccccc2)cnc2[nH]ccn12	15
O=C(Nc1cnc2[nH]cnn2c1=O)c1ccccc1	11
Nc1nc2cnc(-c3ccccc3)cn2n1	42
Nc1cnc2c(-c3c(F)cccc3F)cccn2c1=O	25
Cc1cccc(C)c1-c1cn2nc(N)nc2cn1	38

Each molecule was assayed against MST4 (human) (UniProt Q9P289) (assay: radiometric filter-binding kinase assay). Details: compound 100.0 µM; ATP 20 µM.

Compound	inhibition [%]
O=c1c(NC(=S)NCc2ccccc2)cnc2[nH]ccn12	0
O=C(Nc1cnc2[nH]cnn2c1=O)c1ccccc1	0
Nc1nc2cnc(-c3ccccc3)cn2n1	41
Nc1cnc2c(-c3c(F)cccc3F)cccn2c1=O	77
Cc1cccc(C)c1-c1cn2nc(N)nc2cn1	21

The molecules below were run against MAPKAPK5 (human) (UniProt Q8IW41) (assay: radiometric filter-binding kinase assay). Details: compound 100.0 µM; ATP 20 µM.
Chain of MAPKAPK5 (human) (Q8IW41 whole entry, looked up): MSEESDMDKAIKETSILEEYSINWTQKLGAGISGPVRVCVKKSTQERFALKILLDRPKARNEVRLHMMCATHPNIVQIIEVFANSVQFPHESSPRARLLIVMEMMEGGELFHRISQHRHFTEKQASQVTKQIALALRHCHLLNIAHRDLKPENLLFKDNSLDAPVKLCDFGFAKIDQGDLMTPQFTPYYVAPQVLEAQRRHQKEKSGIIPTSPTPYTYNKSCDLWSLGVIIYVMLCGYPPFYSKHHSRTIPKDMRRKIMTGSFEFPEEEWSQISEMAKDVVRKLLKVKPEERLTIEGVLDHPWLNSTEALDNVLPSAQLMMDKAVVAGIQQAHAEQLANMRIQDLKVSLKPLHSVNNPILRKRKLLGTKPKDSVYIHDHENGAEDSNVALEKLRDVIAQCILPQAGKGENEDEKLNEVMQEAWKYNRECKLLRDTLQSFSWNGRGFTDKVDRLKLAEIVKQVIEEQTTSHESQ

Compound	inhibition [%]
O=c1c(NC(=S)NCc2ccccc2)cnc2[nH]ccn12	0
O=C(Nc1cnc2[nH]cnn2c1=O)c1ccccc1	0
Nc1nc2cnc(-c3ccccc3)cn2n1	34
Nc1cnc2c(-c3c(F)cccc3F)cccn2c1=O	83
Cc1cccc(C)c1-c1cn2nc(N)nc2cn1	26

The molecules below were run against MARK3 (human) (UniProt P27448) (assay: radiometric filter-binding kinase assay). Details: compound 100.0 µM; ATP 5 µM.

Compound	inhibition [%]
O=c1c(NC(=S)NCc2ccccc2)cnc2[nH]ccn12	9
O=C(Nc1cnc2[nH]cnn2c1=O)c1ccccc1	5
Nc1nc2cnc(-c3ccccc3)cn2n1	59
Nc1cnc2c(-c3c(F)cccc3F)cccn2c1=O	86
Cc1cccc(C)c1-c1cn2nc(N)nc2cn1	0

These molecules were tested against PRKAA1 PRKAB2 PRKAG1 (human) (UniProt O43741+Q13131+P54619) (assay: radiometric filter-binding kinase assay). Details: compound 100.0 µM; ATP 20 µM.

Compound	inhibition [%]
O=c1c(NC(=S)NCc2ccccc2)cnc2[nH]ccn12	0
O=C(Nc1cnc2[nH]cnn2c1=O)c1ccccc1	0
Nc1nc2cnc(-c3ccccc3)cn2n1	7
Nc1cnc2c(-c3c(F)cccc3F)cccn2c1=O	40
Cc1cccc(C)c1-c1cn2nc(N)nc2cn1	12

What follows are molecules tested against MAP3K7 TAB1 (human) (UniProt Q15750+O43318) (assay: radiometric filter-binding kinase assay). Details: compound 100.0 µM; ATP 5 µM.
Chain of MAP3K7 TAB1 (human) (O43318 whole entry, looked up): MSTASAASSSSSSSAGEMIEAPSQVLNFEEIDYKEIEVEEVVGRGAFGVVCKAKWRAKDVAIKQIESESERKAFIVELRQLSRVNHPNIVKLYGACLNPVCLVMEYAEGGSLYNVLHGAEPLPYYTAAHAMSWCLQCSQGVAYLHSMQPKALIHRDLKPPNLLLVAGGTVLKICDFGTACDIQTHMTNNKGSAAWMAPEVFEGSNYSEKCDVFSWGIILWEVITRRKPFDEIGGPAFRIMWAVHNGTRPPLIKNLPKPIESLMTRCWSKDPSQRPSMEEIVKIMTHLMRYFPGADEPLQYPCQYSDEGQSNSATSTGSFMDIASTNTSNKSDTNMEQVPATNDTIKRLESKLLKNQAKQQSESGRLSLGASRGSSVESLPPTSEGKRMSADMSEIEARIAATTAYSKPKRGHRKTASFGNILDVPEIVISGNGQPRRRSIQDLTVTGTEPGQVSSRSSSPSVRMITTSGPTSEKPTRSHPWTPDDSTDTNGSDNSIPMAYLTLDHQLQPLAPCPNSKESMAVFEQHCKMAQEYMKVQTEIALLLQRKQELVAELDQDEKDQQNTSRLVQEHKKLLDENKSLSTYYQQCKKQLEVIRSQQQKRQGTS
Chain of MAP3K7 TAB1 (human) (Q15750 whole entry, looked up): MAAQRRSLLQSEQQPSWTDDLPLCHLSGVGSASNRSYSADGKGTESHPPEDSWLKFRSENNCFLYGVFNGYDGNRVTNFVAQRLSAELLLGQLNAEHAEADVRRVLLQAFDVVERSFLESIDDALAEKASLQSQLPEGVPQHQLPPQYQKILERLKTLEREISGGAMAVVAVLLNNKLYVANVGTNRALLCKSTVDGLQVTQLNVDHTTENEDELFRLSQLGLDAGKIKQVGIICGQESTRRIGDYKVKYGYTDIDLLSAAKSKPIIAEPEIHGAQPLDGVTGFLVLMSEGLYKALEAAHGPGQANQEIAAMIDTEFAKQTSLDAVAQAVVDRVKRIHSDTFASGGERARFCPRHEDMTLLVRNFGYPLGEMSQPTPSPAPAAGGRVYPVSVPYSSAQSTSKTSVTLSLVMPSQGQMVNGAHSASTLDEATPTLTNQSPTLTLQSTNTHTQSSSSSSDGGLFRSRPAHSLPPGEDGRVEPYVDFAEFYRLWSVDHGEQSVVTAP

Compound	inhibition [%]
O=c1c(NC(=S)NCc2ccccc2)cnc2[nH]ccn12	20
O=C(Nc1cnc2[nH]cnn2c1=O)c1ccccc1	15
Nc1nc2cnc(-c3ccccc3)cn2n1	86
Nc1cnc2c(-c3c(F)cccc3F)cccn2c1=O	80
Cc1cccc(C)c1-c1cn2nc(N)nc2cn1	3

What follows are molecules tested against FGFR1 (human) (UniProt P11362) (assay: radiometric filter-binding kinase assay). Details: compound 100.0 µM; ATP 20 µM.

Compound	inhibition [%]
O=c1c(NC(=S)NCc2ccccc2)cnc2[nH]ccn12	6
O=C(Nc1cnc2[nH]cnn2c1=O)c1ccccc1	0
Nc1nc2cnc(-c3ccccc3)cn2n1	79
Nc1cnc2c(-c3c(F)cccc3F)cccn2c1=O	88
Cc1cccc(C)c1-c1cn2nc(N)nc2cn1	42

The molecules below were run against MAPK3 (human) (UniProt P27361) (assay: radiometric filter-binding kinase assay). Details: compound 100.0 µM; ATP 5 µM.
Chain of MAPK3 (human) (P27361 whole entry, looked up): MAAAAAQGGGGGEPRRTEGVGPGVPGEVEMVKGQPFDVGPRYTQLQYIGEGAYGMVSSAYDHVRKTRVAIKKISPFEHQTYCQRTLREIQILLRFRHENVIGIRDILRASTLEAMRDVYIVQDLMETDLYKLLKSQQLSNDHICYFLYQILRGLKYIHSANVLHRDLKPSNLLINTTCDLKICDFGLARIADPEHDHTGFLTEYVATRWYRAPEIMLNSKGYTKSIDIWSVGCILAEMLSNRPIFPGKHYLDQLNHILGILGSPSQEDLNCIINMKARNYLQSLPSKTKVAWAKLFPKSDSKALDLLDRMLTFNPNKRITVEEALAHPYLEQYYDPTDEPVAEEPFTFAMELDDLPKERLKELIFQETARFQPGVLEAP

Compound	inhibition [%]
O=c1c(NC(=S)NCc2ccccc2)cnc2[nH]ccn12	7
O=C(Nc1cnc2[nH]cnn2c1=O)c1ccccc1	13
Nc1nc2cnc(-c3ccccc3)cn2n1	31
Nc1cnc2c(-c3c(F)cccc3F)cccn2c1=O	23
Cc1cccc(C)c1-c1cn2nc(N)nc2cn1	31

Each molecule was assayed against STK16 (human) (UniProt O75716) (assay: radiometric filter-binding kinase assay). Details: compound 100.0 µM; ATP 50 µM.

Compound	inhibition [%]
O=c1c(NC(=S)NCc2ccccc2)cnc2[nH]ccn12	0
O=C(Nc1cnc2[nH]cnn2c1=O)c1ccccc1	10
